Data from US10377741B2, “Substituted heteroaryl aldehyde compounds and methods for their use in increasing tissue oxygenation” (Global Blood Therapeutics, Inc., priority 2011, dated 2019).

Target: T1, purified Hemoglobin S (HbS) (Homo sapiens, UniProt P68871+P69905, E7V)
T1 construct: HbS was purified by a modified procedure; from tissue; host or cells: blood of homozygous sickle cell patients (CHORI); for the polymerization assay purified by the CRO VIRUSYS
Test: Modulation of hemoglobin oxygen affinity: oxygen equilibrium curves (HEMOX) in purified HbS
Assay type: biochemical, human (homozygous sickle cell patients)
Settings: 25 μM purified HbS, 45 min at 37° C.
Procedure: Oxygen equilibrium curves (OEC) in purified Hemoglobin S (HbS) were measured by the change in p50, the partial pressure of oxygen at which the heme binding sites in the HbS sample are 50% saturated with oxygen. HbS was purified by a modified procedure (Antonini and Brunori, 1971; Heomoglobin and Myoglobin in their Reactions with Ligands; North Holland Publishing Company; Amsterdam, London) from blood obtained from homozygous sickle cell patients though the Hemoglobinopathy Center at Children's Hospital Oakland Research Institute (CHORI) with Institutional Review Board approval. Oxygen equilibrium curves were carried out with a HEMOX analyzer, (TCS Scientific, New Hope, Pa.). Five hundred μL of 250 μM purified HbS were diluted into 4.5 mL of HEMOX buffer (30 mM TES, 130 mM NaCl, 5 mM KCl, pH=7.4) resulting in a final hemoglobin concentration of 25 μM. The compounds were added at the final desired concentrations. The mixture was incubated for 45 min at 37° C. and then transferred to the Hemox sample chamber. The samples were saturated with oxygen by flushing with compressed air for 10 minutes. The samples were then flushed with pure nitrogen and the absorbance of deoxy-Hb was recorded as a function of the solution pO2. The oxygen equilibrium data was then fit to the Hill Model to obtain values for p50. The deoxygenation curves for both HbS alone (control) and HbS in the presence of compound were collected with the TCS software. The p50 for purified Hbs was typically 13.8±1.6. Delta p50 values were obtained from the p50 value for control minus the p50 value for HbS treated with compound divided by the p50 value for the control.
The compounds of Table 1 that were where tested in the assay above were all found to have positive delta p50 values. Delta p50% is calculated from [[p50(HbS) −p50(HbS treated with compound)]/p50(HbS)]×100. Table 2 below lists the delta p50% values where + indicates a delta p50% of between 0 and 29, ++ indicates a delta p50% of between 30 and 50, and +++ indicates a delta p50% of 50 or greater. Unless noted otherwise, the compounds in Table 2 were tested at 30 μM.

| delta p50% (compound at 30 μM) | delta p50% (compound at 100 μM) | SMILES |
| --- | --- | --- |
| + (a delta p50% of between 0 and 29) |  | COc1cc(C=O)c(OCc2cccnc2C)cn1 [Compound 38, 2-methoxy-5-((2-methylpyridin-3-yl)methoxy)isonicotinaldehyde] |
| + (a delta p50% of between 0 and 29) |  | COc1cc(C=O)c(OCc2ccncc2C)cn1 [Compound 47, 2-methoxy-5-((3-methylpyridin-4-yl)methoxy)isonicotinaldehyde] |
|  | ++ (a delta p50% of between 30 and 50) | COc1cc(C=O)c(OCc2ccncc2Br)cn1 [Compound 48, 5-((3-bromopyridin-4-yl)methoxy)-2-methoxyisonicotinaldehyde] |
| + (a delta p50% of between 0 and 29) |  | COc1cc(C(O)OC)c(OCc2cccc3nccn23)cn1 (stereo not drawn) [Compound 50, (5-(imidazo[1,2-a]pyridin-5-ylmethoxy)-2-methoxypyridin-4-yl)(methoxy)methanol] |
|  | + (a delta p50% of between 0 and 29) | COc1cc(C=O)c(OCc2cn3cc(C(F)(F)F)ccc3n2)cn1 [Compound 52, 2-methoxy-5-((6-(trifluoromethyl)imidazo[1,2-a]pyridin-2-yl)methoxy)isonicotinaldehyde] |
|  | + (a delta p50% of between 0 and 29) | COc1cc(C=O)c(OCc2cn3cc(Br)ccc3n2)cn1 [Compound 56, 5-((6-bromoimidazo[1,2-a]pyridin-2-yl)methoxy)-2-methoxyisonicotinaldehyde] |
|  | ++ (a delta p50% of between 30 and 50) | COc1cc(C=O)c(OCc2cn3cccc(Br)c3n2)cn1 [Compound 57, 5-((8-bromoimidazo[1,2-a]pyridin-2-yl)methoxy)-2-methoxyisonicotinaldehyde] |
| + (a delta p50% of between 0 and 29) |  | COc1cc(C=O)c(OCc2nc3ccccn3c2-c2ccn[nH]2)cn1 [Compound 59, 5-((3-(1H-pyrazol-5-yl)imidazo[1,2-a]pyridin-2-yl)methoxy)-2-methoxyisonicotinaldehyde] |
| + (a delta p50% of between 0 and 29) |  | COc1cc(C=O)c(OCc2ccc(C#N)nc2)cn1 [Compound 62, 5-((4-formyl-6-methoxypyridin-3-yloxy)methyl)picolinonitrile] |
| + (a delta p50% of between 0 and 29) |  | COc1cc(C=O)c(OCc2cccnc2C#N)cn1 [Compound 64, 3-((4-formyl-6-methoxypyridin-3-yloxy)methyl)picolinonitrile] |
| + (a delta p50% of between 0 and 29) |  | COc1cc(C2OCCO2)c(OCc2cn3cccc(C(N)=O)c3n2)cn1 [Compound 68, 2-((4-(1,3-dioxolan-2-yl)-6-methoxypyridin-3-yloxy)methyl)imidazo[1,2-a]pyridine-8-carboxamide] |
| + (a delta p50% of between 0 and 29) |  | COc1cc(C=O)c(OCc2cncc(-c3ccn[nH]3)c2)cn1 [Compound 70, 5-((5-(1H-pyrazol-5-yl)pyridin-3-yl)methoxy)-2-methoxyisonicotinaldehyde] |
| + (a delta p50% of between 0 and 29) |  | COc1cc(C=O)c(OCc2cnccc2-c2ccn[nH]2)cn1 [Compound 71, 5-((4-(1H-pyrazol-5-yl)pyridin-3-yl)methoxy)-2-methoxyisonicotinaldehyde] |
| + (a delta p50% of between 0 and 29) |  | CNC(=O)c1cccn2cc(COc3cnc(OC)cc3C(O)O)nc12 [Compound 72, 2-((4-(dihydroxymethyl)-6-methoxypyridin-3-yloxy)methyl)-N-methylimidazo[1,2-a]pyridine-8-carboxamide] |
| + (a delta p50% of between 0 and 29) |  | COc1cc(C=O)c(OCc2cncc(-c3cnn(C)c3)c2)cn1 [Compound 77, 2-methoxy-5-((5-(1-methyl-1H-pyrazol-4-yl)pyridin-3-yl)methoxy)isonicotinaldehyde] |
| + (a delta p50% of between 0 and 29) |  | COC(=O)c1cncc(COc2cnc(OC)cc2C=O)c1 [Compound 78, methyl 5-((4-formyl-6-methoxypyridin-3-yloxy)methyl)nicotinate] |

The remaining lines, values behind:

| SMILES | delta p50% (compound at 30 μM) | delta p50% (compound at 100 μM) |
| --- | --- | --- |
| O=Cc1cnccc1OCc1cccnc1 [Compound 1, 4-(pyridin-3-ylmethoxy)nicotinaldehyde] | + (a delta p50% of between 0 and 29) |  |
| O=Cc1cccnc1OCc1cccn2ccnc12 [Compound 3, 2-(imidazo[1,2-a]pyridin-8-ylmethoxy)nicotinaldehyde] | + (a delta p50% of between 0 and 29) |  |
| O=Cc1ncccc1OCc1cccn2ccnc12 [Compound 4, 3-(imidazo[1,2-a]pyridin-8-ylmethoxy)picolinaldehyde] | + (a delta p50% of between 0 and 29) |  |
| O=Cc1ccncc1OCc1cccn2ccnc12 [Compound 6, 3-(imidazo[1,2-a]pyridin-8-ylmethoxy)isonicotinaldehyde] | + (a delta p50% of between 0 and 29) |  |
| O=Cc1ccncc1OCc1cccn2cncc12 [Compound 7, 3-(imidazo[1,5-a]pyridin-8-ylmethoxy)isonicotinaldehyde] | + (a delta p50% of between 0 and 29) |  |
| O=Cc1cccnc1CCc1cccn2ccnc12 [Compound 12, 2-(2-(imidazo[1,2-a]pyridin-8-yl)ethyl)nicotinaldehyde] |  | + (a delta p50% of between 0 and 29) |
| COc1cc(C=O)c(OCc2cnccc2C)cn1 [Compound 39, 2-methoxy-5-((4-methylpyridin-3-yl)methoxy)isonicotinaldehyde] | + (a delta p50% of between 0 and 29) |  |
| COc1cc(C=O)c(OCc2ccc(C(F)(F)F)nc2)cn1 [Compound 40, 2-methoxy-5-((6-(trifluoromethyl)pyridin-3-yl)methoxy)isonicotinaldehyde] |  | + (a delta p50% of between 0 and 29) |
| COc1cc(C=O)c(OCc2ccc(C)nc2)cn1 [Compound 41, 2-methoxy-5-((6-methylpyridin-3-yl)methoxy)isonicotinaldehyde] | + (a delta p50% of between 0 and 29) |  |
| COc1cc(C=O)c(OCc2cccnc2)cn1 [Compound 42, 2-methoxy-5-(pyridin-3-ylmethoxy)isonicotinaldehyde] | + (a delta p50% of between 0 and 29) |  |
| Cc1ccc(OCc2cccn3ccnc23)c(C=O)n1 [Compound 49, 3-(imidazo[1,2-a]pyridin-8-ylmethoxy)-6-methylpicolinaldehyde] | ++ (a delta p50% of between 30 and 50) |  |
| O=Cc1ccncc1NC(=O)c1cccn2ccnc12 [Compound 51, N-(4-formylpyridin-3-yl)imidazo[1,2-a]pyridine-8-carboxamide] | + (a delta p50% of between 0 and 29) |  |
| COc1cc(C=O)c(OCc2ccn(C)c(=O)c2)cn1 [Compound 54, 2-methoxy-5-((1-methyl-2-oxo-1,2-dihydropyridin-4-yl)methoxy)isonicotinaldehyde] |  | ++ (a delta p50% of between 30 and 50) |
| COc1cc(C=O)c(OCc2nc3ccccn3c2Br)cn1 [Compound 55, 5-((3-bromoimidazo[1,2-a]pyridin-2-yl)methoxy)-2-methoxyisonicotinaldehyde] |  | + (a delta p50% of between 0 and 29) |
| COc1cc(C=O)c(OCc2cn3cccc(-c4ccnn4C)c3n2)cn1 [Compound 61, 2-methoxy-5-((8-(1-methyl-1H-pyrazol-5-yl)imidazo[1,2-a]pyridin-2-yl)methoxy)isonicotinaldehyde] | + (a delta p50% of between 0 and 29) |  |
| CNC(=O)c1cccn2cc(COc3cnc(OC)cc3C3OCCO3)nc12 [Compound 69, 2-((4-(1,3-dioxolan-2-yl)-6-methoxypyridin-3-yloxy)methyl)-N-methylimidazo[1,2-a]pyridine-8-carboxamide] | + (a delta p50% of between 0 and 29) |  |
| COc1cc(C(O)O)c(OCc2cn3cccc(C(N)=O)c3n2)cn1 [Compound 73, 2-((4-(dihydroxymethyl)-6-methoxypyridin-3-yloxy)methyl)imidazo[1,2-a]pyridine-8-carboxamide] | + (a delta p50% of between 0 and 29) |  |
| COc1cc(C=O)c(OCc2cncc(-c3ccn(C)n3)c2)cn1 [Compound 75, 2-methoxy-5-((5-(1-methyl-1H-pyrazol-3-yl)pyridin-3-yl)methoxy)isonicotinaldehyde] | + (a delta p50% of between 0 and 29) |  |
| COc1cc(C=O)c(OCc2cncc(-c3cn[nH]c3)c2)cn1 [Compound 76, 5-((5-(1H-pyrazol-4-yl)pyridin-3-yl)methoxy)-2-methoxyisonicotinaldehyde] | + (a delta p50% of between 0 and 29) |  |
| Cc1ccc(OCc2cnc3ccccc3c2)c(C=O)n1 [Compound 81, 6-methyl-3-(quinolin-3-ylmethoxy)picolinaldehyde] | + (a delta p50% of between 0 and 29) |  |
